The structures appear in SMILES notation. Active and inactive are the calls of the source. The calls are words filed in the database; no cut-off is given here.

For 13 compounds, IC50, Activity and inhibition results are on record in ChEMBL document CHEMBL1149597, “Structure-activity relationships of semisynthetic mumbaistatin analogs” (Bioorg Med Chem, 2007).

Test [1] addresses T1, Glucose-6-phosphate exchanger SLC37A4 (Homo sapiens, UniProt O43826).
T1 sequence (O43826 whole entry): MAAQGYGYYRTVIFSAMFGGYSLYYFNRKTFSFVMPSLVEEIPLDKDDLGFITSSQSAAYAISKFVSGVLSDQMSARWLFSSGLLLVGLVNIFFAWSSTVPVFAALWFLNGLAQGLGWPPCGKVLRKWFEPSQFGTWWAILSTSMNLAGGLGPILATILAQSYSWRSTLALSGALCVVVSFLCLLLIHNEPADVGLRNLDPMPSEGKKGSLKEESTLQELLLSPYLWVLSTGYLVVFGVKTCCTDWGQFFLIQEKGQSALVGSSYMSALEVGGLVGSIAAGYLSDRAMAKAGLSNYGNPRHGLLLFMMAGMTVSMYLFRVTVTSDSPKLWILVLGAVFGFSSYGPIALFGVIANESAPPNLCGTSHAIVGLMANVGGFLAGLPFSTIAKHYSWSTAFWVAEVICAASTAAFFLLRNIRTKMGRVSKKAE
The experiment in a line: (§1) Inhibition of glucose 6 phosphate translocase 1.

The target in test [2] is T2, Glucose-6-phosphate exchanger SLC37A4 (Homo sapiens) (UniProt O43826).
T2 sequence (whole entry): T1 sequence (O43826 whole entry)
Described as §1.

A further test concerns Hepatocyte. The test is described as follows: Inhibition of glucagon-stimulated glucose production in rat hepatocytes at 280 uM. It is filed as functional.

As for `COc1cc2c(c(CSc3ccccc3)c1C(=O)O)C(=O)c1c(O)cccc1C2=O`, the IC50 (usually the midpoint of a concentration-inhibition curve) in test [1] worked out at 50 µM.

In turn, `COc1cc2c(c(/C=C/c3ccccc3)c1C(=O)O)C(=O)c1c(O)cccc1C2=O` showed an IC50 in test [1] of 2.5 µM.

In test [1], `O=C1c2cccc(O)c2C(=O)c2c1cc(O)c1c2CC(c2cccc3ccccc23)OC1=O` (centres undefined) registered a half-maximal inhibitory concentration (IC50) of 5 µM.

For the compound `Cc1c(C(=O)O)c(O)cc2c1C(=O)c1c(O)cccc1C2=O`, the outcome in test [2] was inactive.

Compound `C=CCCOc1ccccc1/C=C/c1c(C(=O)O)c(OC)cc2c1C(=O)c1c(OC)cccc1C2=O` registered a half-maximal inhibitory concentration (IC50) in test [1] of 20 µM.

`COc1cc2c(c(/C=C/c3cccc4ccccc34)c1C(=O)O)C(=O)c1c(O)cccc1C2=O` returned a half-maximal inhibitory concentration (IC50) in test [1] of 2.5 µM. Moreover, testing at 280 µM in the test on Hepatocyte gave an inhibition of 40%.

Regarding `COc1cc2c(c(Cc3ccccc3)c1C(=O)O)C(=O)c1c(O)cccc1C2=O`, in test [1], the IC50 is 20 µM.

Regarding `O=C(O)CC(O)CCC(=O)c1cccc(O)c1C(=O)c1c(C(=O)O)c(O)cc2c1C(=O)c1c(O)cccc1C2=O` (centres undefined) [MUMBAISTATIN], the IC50 in test [1] was 0.005 µM.

In test [1], `CCCCCC/C=C/c1c(C(=O)O)c(OC)cc2c1C(=O)c1c(O)cccc1C2=O` yielded an IC50 of 50 µM.

In turn, `C=C(c1cccc(O)c1C(=O)O)c1c(O)cccc1C(CCCCC)OC` (centres undefined) showed an IC50 in test [1] of 50 µM.

Compound `CCCCc1c(C(=O)O)c(O)cc2c1C(=O)c1c(O)cccc1C2=O` displayed an IC50 in test [1] of 100 µM.

In test [1], `CCC(C)CCc1c(C(=O)O)c(O)cc2c1C(=O)c1c(O)cccc1C2=O` (centres undefined) displayed an IC50 of 200 µM.

`CC/C=C/c1c(C(=O)O)c(OC)cc2c1C(=O)c1c(O)cccc1C2=O` returned an IC50 in test [1] of 12.5 µM.
